Measurements reported in the NIST ThermoML archive (doi:10.1021/acs.jced.7b00841).
Numbers after ± are expanded uncertainties.

Settings: for mass density: Liquid, Vibrating tube method; for specific volume: Gas, isochoric method

FC(F)(F)/C=C/Cl [(E)-1-chloro-3,3,3-trifluoroprop-1-ene]
Settings	mass density [kg/m3]	specific volume [m3/kg]
283.14 K, 29999 kPa	1358.6 ± 1	–
283.15 K, 133 kPa	1297.8 ± 0.8	–
283.15 K, 500 kPa	1298.7 ± 0.8	–
283.15 K, 5000 kPa	1309.8 ± 0.9	–
283.15 K, 10000 kPa	1321 ± 0.9	–
283.15 K, 15000 kPa	1331.4 ± 0.9	–
283.15 K, 20000 kPa	1341.1 ± 0.9	–
283.15 K, 35000 kPa	1366.8 ± 1.1	–
283.16 K, 1000 kPa	1300 ± 0.8	–
283.16 K, 2500 kPa	1303.7 ± 0.8	–
283.16 K, 25000 kPa	1350.1 ± 1	–
293.14 K, 499 kPa	1275.3 ± 0.8	–
293.14 K, 1000 kPa	1276.7 ± 0.8	–
293.14 K, 2500 kPa	1280.9 ± 0.8	–
293.14 K, 5000 kPa	1287.6 ± 0.8	–
293.14 K, 15000 kPa	1311.3 ± 0.9	–
293.14 K, 20000 kPa	1321.7 ± 0.9	–
293.14 K, 35000 kPa	1349.2 ± 1	–
293.15 K, 151 kPa	1274.3 ± 0.8	–
293.15 K, 9999 kPa	1299.9 ± 0.9	–
293.15 K, 25000 kPa	1331.4 ± 1	–
293.16 K, 30000 kPa	1340.6 ± 1	–
303.15 K, 250 kPa	1250.3 ± 0.8	–
303.15 K, 501 kPa	1251.2 ± 0.8	–
303.15 K, 1001 kPa	1252.7 ± 0.8	–
303.15 K, 2499 kPa	1257.4 ± 0.8	–
303.15 K, 5000 kPa	1264.8 ± 0.8	–
303.15 K, 35000 kPa	1331.1 ± 1	–
303.16 K, 10001 kPa	1278.4 ± 0.9	–
303.16 K, 15003 kPa	1290.7 ± 0.9	–
303.16 K, 20002 kPa	1301.9 ± 0.9	–
303.16 K, 25001 kPa	1312.3 ± 0.9	–
303.16 K, 30000 kPa	1322 ± 1	–
308.15 K, 167 kPa	–	0.11 ± 0.0005
313.14 K, 35000 kPa	1313.5 ± 1	–
313.15 K, 170 kPa	–	0.1101 ± 0.0005
313.15 K, 351 kPa	1225.4 ± 0.8	–
313.15 K, 501 kPa	1226 ± 0.8	–
313.15 K, 1000 kPa	1227.8 ± 0.8	–
313.15 K, 2500 kPa	1233.1 ± 0.8	–
313.15 K, 5000 kPa	1241.3 ± 0.8	–
313.15 K, 10000 kPa	1256.4 ± 0.9	–
313.15 K, 15000 kPa	1269.9 ± 0.9	–
313.15 K, 19999 kPa	1282.1 ± 0.9	–
313.15 K, 25000 kPa	1293.4 ± 0.9	–
313.15 K, 30000 kPa	1303.8 ± 1	–
318.15 K, 174 kPa	–	0.1101 ± 0.0005
323.15 K, 177 kPa	–	0.1101 ± 0.0005
323.15 K, 274 kPa	–	0.0684 ± 0.0005
323.15 K, 500 kPa	1199.9 ± 0.8	–
323.15 K, 1000 kPa	1202 ± 0.8	–
323.15 K, 2500 kPa	1208 ± 0.8	–
323.15 K, 5000 kPa	1217.4 ± 0.8	–
323.15 K, 10000 kPa	1234.3 ± 0.9	–
323.15 K, 15000 kPa	1249.2 ± 0.9	–
323.15 K, 19999 kPa	1262.7 ± 0.9	–
323.15 K, 24999 kPa	1274.9 ± 0.9	–
323.15 K, 30000 kPa	1286.3 ± 1	–
323.15 K, 35000 kPa	1296.8 ± 1	–
328.15 K, 180 kPa	–	0.1101 ± 0.0004
328.15 K, 280 kPa	–	0.0684 ± 0.0004
333.14 K, 2500 kPa	1182 ± 0.8	–
333.14 K, 20000 kPa	1242.9 ± 0.9	–
333.14 K, 25003 kPa	1256.2 ± 0.9	–
333.14 K, 30002 kPa	1268.3 ± 0.9	–
333.14 K, 35000 kPa	1279.5 ± 1	–
333.15 K, 183 kPa	–	0.1101 ± 0.0004
333.15 K, 285 kPa	–	0.0684 ± 0.0003
333.15 K, 372 kPa	–	0.0508 ± 0.0002
333.15 K, 500 kPa	1172.6 ± 0.8	–
333.15 K, 1000 kPa	1175.1 ± 0.8	–
333.15 K, 5000 kPa	1192.7 ± 0.8	–
333.15 K, 10000 kPa	1211.7 ± 0.8	–
333.15 K, 15001 kPa	1228.2 ± 0.9	–
338.15 K, 186 kPa	–	0.1102 ± 0.0004
338.15 K, 290 kPa	–	0.0685 ± 0.0003
338.15 K, 380 kPa	–	0.0509 ± 0.0002
338.15 K, 415 kPa	–	0.0461 ± 0.0002
343.15 K, 189 kPa	–	0.1102 ± 0.0004
343.15 K, 296 kPa	–	0.0685 ± 0.0003
343.15 K, 387 kPa	–	0.0509 ± 0.0002
343.15 K, 423 kPa	–	0.0461 ± 0.0002
343.15 K, 458 kPa	–	0.0419 ± 0.0002
343.15 K, 700 kPa	1145 ± 0.8	–
343.15 K, 1000 kPa	1146.6 ± 0.8	–
343.15 K, 2500 kPa	1154.6 ± 0.8	–
343.15 K, 5000 kPa	1166.8 ± 0.8	–
343.15 K, 10000 kPa	1188.1 ± 0.8	–
343.15 K, 15000 kPa	1206.2 ± 0.9	–
343.15 K, 20003 kPa	1222.1 ± 0.9	–
343.15 K, 25000 kPa	1236.4 ± 0.9	–
343.15 K, 30001 kPa	1249.4 ± 0.9	–
343.15 K, 35002 kPa	1261.5 ± 1	–
348.15 K, 192 kPa	–	0.1102 ± 0.0004
348.15 K, 301 kPa	–	0.0685 ± 0.0003
348.15 K, 394 kPa	–	0.0509 ± 0.0002
348.15 K, 431 kPa	–	0.0462 ± 0.0002
348.15 K, 468 kPa	–	0.0419 ± 0.0002
348.15 K, 550 kPa	–	0.0349 ± 0.0002
353.15 K, 195 kPa	–	0.1102 ± 0.0004
353.15 K, 306 kPa	–	0.0685 ± 0.0003
353.15 K, 401 kPa	–	0.0509 ± 0.0002
353.15 K, 439 kPa	–	0.0462 ± 0.0002
353.15 K, 477 kPa	–	0.042 ± 0.0002
353.15 K, 562 kPa	–	0.0349 ± 0.0002
353.15 K, 639 kPa	–	0.0297 ± 0.0002
353.15 K, 801 kPa	1114.4 ± 0.8	–
353.15 K, 1000 kPa	1116.5 ± 0.8	–
353.15 K, 2500 kPa	1125.4 ± 0.8	–
353.15 K, 5000 kPa	1139.8 ± 0.8	–
353.15 K, 10000 kPa	1163.9 ± 0.8	–
353.15 K, 15000 kPa	1184.3 ± 0.8	–
353.15 K, 20000 kPa	1201.7 ± 0.9	–
353.15 K, 25000 kPa	1217.2 ± 0.9	–
353.15 K, 30000 kPa	1231.2 ± 0.9	–
353.15 K, 34999 kPa	1243.9 ± 0.9	–
358.15 K, 198 kPa	–	0.1103 ± 0.0004
358.15 K, 311 kPa	–	0.0685 ± 0.0003
358.15 K, 409 kPa	–	0.0509 ± 0.0002
358.15 K, 447 kPa	–	0.0462 ± 0.0002
358.15 K, 486 kPa	–	0.042 ± 0.0002
358.15 K, 573 kPa	–	0.0349 ± 0.0002
358.15 K, 654 kPa	–	0.0297 ± 0.0002
363.14 K, 20001 kPa	1180.8 ± 0.9	–
363.14 K, 35000 kPa	1226.2 ± 0.9	–
363.15 K, 202 kPa	–	0.1103 ± 0.0004
363.15 K, 316 kPa	–	0.0685 ± 0.0003
363.15 K, 416 kPa	–	0.0509 ± 0.0002
363.15 K, 455 kPa	–	0.0462 ± 0.0002
363.15 K, 494 kPa	–	0.042 ± 0.0002
363.15 K, 584 kPa	–	0.0349 ± 0.0002
363.15 K, 667 kPa	–	0.0297 ± 0.0002
363.15 K, 1200 kPa	1085.8 ± 0.8	–
363.15 K, 2500 kPa	1095.5 ± 0.8	–
363.15 K, 5000 kPa	1112.1 ± 0.8	–
363.15 K, 10000 kPa	1139.5 ± 0.8	–
363.15 K, 15001 kPa	1161.9 ± 0.8	–
363.15 K, 25001 kPa	1197.5 ± 0.9	–
363.15 K, 30000 kPa	1212.5 ± 0.9	–
368.15 K, 205 kPa	–	0.1103 ± 0.0004
368.15 K, 321 kPa	–	0.0685 ± 0.0003
368.15 K, 423 kPa	–	0.0509 ± 0.0002
368.15 K, 463 kPa	–	0.0462 ± 0.0002
368.15 K, 503 kPa	–	0.042 ± 0.0002
368.15 K, 594 kPa	–	0.0349 ± 0.0002
368.15 K, 680 kPa	–	0.0298 ± 0.0002
373.15 K, 208 kPa	–	0.1103 ± 0.0004
373.15 K, 326 kPa	–	0.0686 ± 0.0003
373.15 K, 430 kPa	–	0.0509 ± 0.0002
373.15 K, 470 kPa	–	0.0462 ± 0.0002
373.15 K, 512 kPa	–	0.042 ± 0.0002
373.15 K, 605 kPa	–	0.0349 ± 0.0002
373.15 K, 693 kPa	–	0.0298 ± 0.0002
